Assay results taken from patent US12496275B2, “Drug delivery methods and compositions” (Mayo Foundation for Medical Education and Research, priority 2019, dated 2025).
One block for each compound: values may come before it.

Experiments:
[1] = Analysis of encapsulation efficiency and drug loading efficiency of liposomes; type: physicochemical
Procedure: Analysis of encapsulation efficiency and drug loading efficiency: Liposome-encapsulation efficiency was measured by determining the amount of entrapped drugs. Briefly, the drug-loaded liposome sample was centrifuged in an amicon ultra centrifugal filter with a cut off size of 3 kD in order to separate the unentrapped drug. Total (Tdrug) and unentrapped drug (UEdrug) amounts were determined by measuring the absorbance at λx of respective drugs and comparing with corresponding standard curves. The encapsulated drug (Edrug) amount was calculated by subtracting the amount of unentrapped drugs (UEdrug) from total drug (Tdrug) amount. The drug-encapsulation efficiency (EE %) was expressed as the percentage of the encapsulated amount (Edrug) to the total amount (Tdrug). Drug loading efficiency was expressed as the percentage of encapsulated drug (Edrug) to the total lipid amount (Tlipid).

[2] = stated, no test described; cited from earlier work
[3] = system: AsPC-1 orthotopic xenografts; experiment: Single mouse trial, GIPC-1 knockdown plus gemcitabine; type: in vivo, mice; details: AsPC-1, single mouse, gemcitabine 10 mg/kg
Source text: (§1) In vivo tumor growth inhibition experiment: A single mouse trial (SMT) was used to assess the in vivo tumor inhibition study in combination with GIPC-1 knockdown plus gemcitabine treatment. This strategy is currently being used in ‘Avatar’ models for the development of personalized therapy for various diseases. These ‘Avatar’ models are developed by implanting patient tumor samples in mice for subsequent drug efficacy studies. […] We used the same strategy in our SMT. All procedures were performed according to the approved guidelines. For the pancreatic cancer orthotopic model, 6-8-week-old female SCID mice were obtained from in-house breeding. Approximately, 1×10^6 luciferase-labeled Tet-inducible GIPC-1 shRNA vector-transfected AsPC-1 or PANC-1 cells, resuspended in 100 μL of PBS were injected into the pancreas of each mouse. After three days of cell inoculation, GIPC-1 knockdown was induced by adding doxycycline (0.5 mg/mL) in drinking water for the remainder of the study. […] After completion of the experiment, all tumor-bearing mice were euthanized with CO2; tumors were harvested, and tumor volumes and weights were measured.

[4] = system: PANC-1 orthotopic xenografts; experiment: as above; type: in vivo, mice; details: PANC-1, single mouse, gemcitabine 10 mg/kg
Source text: as §1

PANC-1 cells = experiment: In vitro gemcitabine sensitivity after Tet-inducible GIPC shRNA knockdown; type: cell-based, human; details: PANC-1, 0.5 μM to 50 μM, 72 h
Procedure: (§2) Antibodies. Antibody for β-actin and horseradish peroxidase-conjugated secondary antibodies were purchased from Santa Cruz Biotechnology. Anti-GIPC antibody was purchased from Thermo Fisher, USA. shRNA Transfection. The plasmids for Tet-on-inducible GIPC1 shRNA were purchased from Dharmacon, US. Lentivirus stocks for GIPC1 shRNA were prepared and infected into the target cells following standard procedures. After infection, 2 μg/mL of puromycin was added to the medium for antibiotic selection. For the Tet-On-inducible GIPC shRNA, 0.4 μg/mL of doxycycline was used to induce shRNA expression in the stably infected cells.
(§3) In vitro cytotoxicity assay: Approximately, 5×10^3 cells were seeded in 384-well plates. After 18-24 h, cells were treated with increasing concentrations of gemcitabine and incubated for further 72 h. At the end of the incubation, cell viability was measured using CellTiter-Glo® 2.0 Assay (Promega) as per the manufacturer's protocol. Briefly, 24 μL of reagent was added to each well. The plate was incubated at RT for 10 minutes and luminescence signals were measured using Spectramax i3x. Percentage viability is calculated as follows: Viability (%)=100×(ATreated−ABlank)/(AUntreated−ABlank).

AsPC-1 cells = experiment: as above; type: cell-based, human; details: AsPC-1, 0.5 μM to 50 μM, 72 h
Procedure: as §2, §3

AsPC-1 tumors = experiment: Validation study, GIPC-1 knockdown plus gemcitabine, 5 mice per group; type: in vivo; details: AsPC-1, 5 mice per group, gemcitabine 10 mg/kg
Procedure: as §1, with “This” for “In vivo tumor growth inhibition experiment: A single mouse trial (SMT) was used to assess the in vivo tumor inhibition study in combination with GIPC-1 knockdown plus gemcitabine treatment. This”

Structure (SMILES): NC(N)=NCCC[C@H](NC(=O)c1sccc1NS(=O)(=O)c1cccc2nsnc12)C(=O)O [EG00229]
% of Total drug loading w.r.t Total lipid ([1]; EG00229): 2.2%
Encapsulation efficiencies (%) ([1]; EG00229): 30%

Structure (SMILES): CCc1c2c(nc3ccc(OC(=O)N4CCC(N5CCCCC5)CC4)cc13)-c1cc3c(c(=O)n1C2)COC(=O)[C@]3(O)CC [IRT, irinotecan]
water solubility [2]: poorly water-soluble

Structure (SMILES): Nc1ccn([C@@H]2O[C@H](CO)[C@@H](O)C2(F)F)c(=O)n1 [gemcitabine]
response of GIPC-depleted tumors to gemcitabine (tumor volume, weight) [3]: increasing gemcitabine efficacy
response of GIPC-depleted tumors to gemcitabine (tumor volume, weight) ([3]; listed as Gemcitabine): significantly higher response
response of GIPC-depleted tumors to gemcitabine (tumor volume, weight) [4]: increasing gemcitabine efficacy
response of GIPC-depleted tumors to gemcitabine (tumor volume, weight) ([4]; listed as Gemcitabine): significantly higher response
growth inhibition by gemcitabine in GIPC-depleted vs control cells (PANC-1 cells): steeper growth inhibition curve
growth inhibition by gemcitabine in GIPC-depleted vs control cells (PANC-1 cells; listed as Gemcitabine): sensitizes
growth inhibition by gemcitabine in GIPC-depleted vs control cells (AsPC-1 cells): steeper growth inhibition curve
growth inhibition by gemcitabine in GIPC-depleted vs control cells (AsPC-1 cells; listed as Gemcitabine): sensitizes
response of GIPC-depleted tumors to gemcitabine (tumor volume, weight) (AsPC-1 tumors): increasing gemcitabine efficacy
response of GIPC-depleted tumors to gemcitabine (tumor volume, weight) (AsPC-1 tumors; listed as Gemcitabine): more or less similar results

The next lines start with results.

% of Total drug loading w.r.t Total lipid ([1]; everolimus): 7.29%
Encapsulation efficiencies (%) ([1]; everolimus): ~100%
Structure (SMILES): CO[C@H]1C[C@@H]2CC[C@@H](C)[C@@](O)(O2)C(=O)C(=O)N2CCCC[C@H]2C(=O)O[C@H]([C@H](C)C[C@@H]2CC[C@@H](OCCO)[C@H](OC)C2)CC(=O)[C@H](C)/C=C(\C)[C@@H](O)[C@@H](OC)C(=O)[C@H](C)C[C@H](C)/C=C/C=C/C=C/1C [everolimus]
water solubility [2]: water insoluble

% of Total drug loading w.r.t Total lipid ([1]; vinorelbine): 3.5%
Encapsulation efficiencies (%) ([1]; vinorelbine): 23.7%
Structure (SMILES): CCC1=C[C@@H]2CN(C1)Cc1c([nH]c3ccccc13)[C@@](C(=O)OC)(c1cc3c(cc1OC)N(C)[C@H]1[C@@](O)(C(=O)OC)[C@H](OC(C)=O)[C@]4(CC)C=CCN5CC[C@]31[C@@H]54)C2 [vinorelbine]
water solubility [2]: highly water soluble
